What all share (conditions): temperature: 37 °C
The subject of assay [1] is Candida glabrata ATCC 2001 (YPD). Description: FICI minimum (fractional inhibitory concentration index, Loewe) (dimensionless); higher = less synergy / more antagonism. How it is done:
(§1)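 CLSI M27-A3 checkerboard broth microdilution of an immunomodulatory drug (or amoxicillin) combined with an antifungal against S. cerevisiae and C. glabrata isolates. Growth was read as OD600 after incubation at 37 °C (48 h for the reported MICs). Reported quantities are the FICI (Loewe: MIC50 for azoles and immunomodulators, MIC90 for AMB; ≤0.5 synergy, ≥4 antagonism), as minimum and maximum over the surface, and the Bliss-independence sum of statistically significant ΔE (positive = synergy). Clinical isolates were tested in RPMI; C. glabrata ATCC 2001 and its pdr1Δ mutant were tested in YPD.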

Assay [2] has the same test system. Description: FICI maximum (fractional inhibitory concentration index, Loewe) (dimensionless); higher = less synergy / more antagonism. How it is done:
as §1

For assay [3] the test system is unchanged. Nature of the assay: Bliss independence sum of statistically significant ΔE (measured minus predicted growth inhibition) over checkerboard surface (fraction (sum of ΔE; 1 = 100%)); higher = more synergy.
In assay [4] the test system is Candida glabrata ZIM 2344 (RPMI). Nature of the assay: FICI minimum (fractional inhibitory concentration index, Loewe) (dimensionless); higher = less synergy / more antagonism. How it is done: as §1
For assay [5], the system named is Candida glabrata ZIM 2385 (RPMI). The description is as above. Here is the method: as §1
Assay [6] deals with Candida glabrata ZIM 2365 (RPMI). Described as above. How it is done:
as §1

The test system of assay [7] is Candida glabrata ZIM 2369 (RPMI). Described as above. Here is the method: as §1
The test system of assay [8] is Candida glabrata ZIM 2389 (RPMI). The assay is described as above. Here is the method: as §1
Assay [9] concerns Saccharomyces cerevisiae ZIM 2255 (RPMI). The description is as above. How it is done:
as §1

In assay [10] the test system is Saccharomyces cerevisiae ZIM 2269 (RPMI). The assay is described as above. How it is done:
as §1

The subject of assay [11] is Saccharomyces cerevisiae ZIM 2247 (RPMI). The assay is described as above. Here is the method: as §1
In assay [12] the test system is Saccharomyces cerevisiae ZIM 2260 (RPMI). Described as above. How it is done: as §1
Assay [13] relates to Candida glabrata ZIM 2382 (RPMI). Described as above. How it is done: as §1
Assay [14] relates to Saccharomyces cerevisiae ZIM 2558 (RPMI). The description is as above. Here is the method:
as §1

In assay [15] the test system is Candida glabrata ZIM 2344 (RPMI). Description: FICI maximum (fractional inhibitory concentration index, Loewe) (dimensionless); higher = less synergy / more antagonism. Here is the method:
as §1

Assay [16] concerns Candida glabrata ZIM 2385 (RPMI). Described as above. Here is the method:
as §1

Assay [17] has as its system Candida glabrata ZIM 2365 (RPMI). Described as above. Here is the method:
as §1

The test system of assay [18] is Candida glabrata ZIM 2369 (RPMI). The description is as above. How it is done:
as §1

Assay [19] concerns Candida glabrata ZIM 2389 (RPMI). The assay is described as above. Here is the method: as §1
Assay [20] relates to Saccharomyces cerevisiae ZIM 2255 (RPMI). The description is as above. How it is done: as §1
Assay [21] relates to Saccharomyces cerevisiae ZIM 2269 (RPMI). Described as above. How it is done: as §1
For assay [22], the system named is Saccharomyces cerevisiae ZIM 2247 (RPMI). Described as above. How it is done:
as §1

Assay [23] relates to Saccharomyces cerevisiae ZIM 2260 (RPMI). Described as above. How it is done: as §1
In assay [24] the test system is Candida glabrata ZIM 2382 (RPMI). Described as above. How it is done:
as §1

Assay [25] deals with Saccharomyces cerevisiae ZIM 2558 (RPMI). The assay is described as above. Here is the method:
as §1

The test system of assay [26] is Candida glabrata ZIM 2344 (RPMI). Description: Bliss independence sum of statistically significant ΔE (measured minus predicted growth inhibition) over checkerboard surface (fraction (sum of ΔE; 1 = 100%)); higher = more synergy.
The test system of assay [27] is Candida glabrata ZIM 2385 (RPMI). The assay is described as above.
Assay [28] relates to Candida glabrata ZIM 2365 (RPMI). The description is as above.
Assay [29] deals with Candida glabrata ZIM 2369 (RPMI). Described as above.
Assay [30] deals with Candida glabrata ZIM 2389 (RPMI). The description is as above.
For assay [31], the system named is Saccharomyces cerevisiae ZIM 2255 (RPMI). The description is as above.
In assay [32] the test system is Saccharomyces cerevisiae ZIM 2269 (RPMI). The description is as above.
The subject of assay [33] is Saccharomyces cerevisiae ZIM 2247 (RPMI). The assay is described as above.
Assay [34] has as its system Saccharomyces cerevisiae ZIM 2260 (RPMI). The assay is described as above.
For assay [35], the system named is Candida glabrata ZIM 2382 (RPMI). The assay is described as above.
The test system of assay [36] is Saccharomyces cerevisiae ZIM 2558 (RPMI). The assay is described as above.
Assay [37] has as its system Saccharomyces cerevisiae ZIM 2566 (RPMI). Description: FICI minimum (fractional inhibitory concentration index, Loewe) (dimensionless); higher = less synergy / more antagonism. Here is the method: as §1
Assay [38] shares this test system. Description: FICI maximum (fractional inhibitory concentration index, Loewe) (dimensionless); higher = less synergy / more antagonism. Here is the method:
as §1

Assay [39] shares this test system. Nature of the assay: Bliss independence sum of statistically significant ΔE (measured minus predicted growth inhibition) over checkerboard surface (fraction (sum of ΔE; 1 = 100%)); higher = more synergy.

On to `COc1c(C)c2c(c(O)c1C/C=C(\C)CCC(=O)O)C(=O)OC2` [mycophenolic acid] + CC(=O)N1CCN(c2ccc(OCC3COC(Cn4ccnc4)(c4ccc(Cl)cc4Cl)O3)cc2)CC1 [ketoconazole], for which the FICI minimum in assay [1] is 1.25. For the same molecule, the FICI maximum in [2] is 4.12. The Bliss independence sum in assay [3] is -2.13.

Turning to `COc1c(C)c2c(c(O)c1C/C=C(\C)CCC(=O)O)C(=O)OC2` [mycophenolic acid] + CCC(C)n1ncn(-c2ccc(N3CCN(c4ccc(OCC5COC(Cn6cncn6)(c6ccc(Cl)cc6Cl)O5)cc4)CC3)cc2)c1=O [itraconazole], the FICI minimum is 0.174 in [4]; 0.508 in assay [5]; 0.516 in [6]; 1.01 in [7]; 0.508 in [8]; 0.517 in assay [9]. Further, the FICI minimum in assay [10] was found to be 1.03; in assay [11], 1.02; in [12], 1; in assay [13] it was 0.508; in [14] it was 2.01. Further, the FICI maximum in assay [15] amounted to 1.62; in assay [16], 1.02; in assay [17], 4.12; in [18] it was 2.25; in assay [19], 1.25; in [20] it was 1.13. The FICI maximum in assay [21] was found to be 1.25; in assay [22], 2.53; in assay [23], 2.16; in [24], 0.75; in [25] it was 4.25. Besides, the Bliss independence sum is 10 in assay [26]; 3.12 in assay [27]; 0.327 in assay [28]; -0.825 in [29]; 4.83 in assay [30]; 2.31 in [31]. Besides, the Bliss independence sum in [32] was 0.69; in [33], -0.0362; in [34], -2.11; in assay [35], 0.427; in [36], -4.07.

Turning to `COc1c(C)c2c(c(O)c1C/C=C(\C)CCC(=O)O)C(=O)OC2` [mycophenolic acid] + C[C@@H](c1ncncc1F)[C@](O)(Cn1cncn1)c1ccc(F)cc1F [voriconazole], the FICI minimum in assay [1] amounted to 1.06. The FICI maximum in assay [2] was 2.5. The Bliss independence sum in [3] was -2.31.

Regarding `CC1(C)S[C@@H]2[C@H](NC(=O)[C@H](N)c3ccc(O)cc3)C(=O)N2[C@H]1C(=O)O` [amoxicillin] + OC(Cn1cncn1)(Cn1cncn1)c1ccc(F)cc1F [fluconazole], the FICI minimum was 0.508 in assay [4]; 1.02 in assay [5]; 1.01 in assay [6]; 1.01 in [7]; 1.02 in assay [8]; 2.01 in assay [9]. For the same molecule, the FICI minimum in assay [37] is 0.516; in assay [10], 1.03; in [11], 1.02; in [13], 1.01; in [14] it was 0.508. For the same molecule, the FICI maximum is 0.75 in assay [15]; 1.5 in assay [16]; 1.25 in [17]; 1.25 in [18]; 2.25 in [19]; 2.12 in [20]. The FICI maximum came out at 1.25 in assay [38]; 2 in assay [21]; 2.12 in assay [22]; 1.25 in assay [24]; 1.25 in [25]. For the same molecule, the Bliss independence sum in [26] was 0.963; in assay [27], 1.92; in assay [28], -0.019; in assay [29] it was 1.02; in assay [30], 2.98; in [31] it was -2.93. Moreover, the Bliss independence sum in [39] was 0.455; in [32], -1.87; in assay [33], -1.44; in assay [35], 0.34; in assay [36], 1.93.

With `COc1c(C)c2c(c(O)c1C/C=C(\C)CCC(=O)O)C(=O)OC2` [mycophenolic acid] + CC[C@@H]([C@H](C)O)n1ncn(-c2ccc(N3CCN(c4ccc(OC[C@@H]5CO[C@@](Cn6cncn6)(c6ccc(F)cc6F)C5)cc4)CC3)cc2)c1=O [posaconazole], the FICI minimum in [1] was 1.5. In assay [2], the FICI maximum worked out at 4.12. Also, the Bliss independence sum in [3] is -3.21.
